Entries after “also recorded” stand apart in the source; their conditions may differ.
Tests used:
[1] = Polymorph obtained on crystallization of AAP from ethanol with or without crystalline substrate (DSC, XRPD); type: physicochemical; conditions: supersaturation 0.49 with respect to Form I; for Polymorphic form of AAP crystallized in the presence of substrate: substrate seeds added, DSC/XRPD, label = substrate
Excerpt: Such an observation implies that for both polymorphs their nucleation rate constants follow the relationship kI>kII. It was hypothesized crystalline substrates would be able to selectively crystallize Form II if they fit the following two core criteria: 1) the unit cell parameters of the substrate were substantially similar to that of Form II and 2) the molecular functionality of the compound acting as the substrate is similar to that of AAP. By constraining the crystallographic properties of the substrate in this way, a three dimensional lattice match with Form II was targeted. Furthermore, selection of compounds with similar functionality as AAP was selected to stabilize the formation of a nucleus through favorable interactions such as hydrogen bonds.
The crystallizations of AAP from ethanol were then repeated in the presence of 50 mg of 4-APAA seeds, added after the desired supersaturation had been achieved. Once crystallization occurred, the crystals were filtered immediately and analyzed by DSC and x-ray powder diffraction. […] Furthermore no melting endotherm for Form I which is often observed in DSC traces of apparently pure Form II.
A plot of dimensionless potential energy (V/V0) as a function of orientation angle (θ) for the interacting (001) faces of Form II acetaminophen and graphite was prepared. The EpiCalc calculation was performed using the following lattice values for the (001) faces of Form II acetaminophen and graphite: (001) Form II acetaminophen: a=17.1657 Å, b=11.7773 and Å and β=90° (001); graphite: a=b=2.456 Å and α=90°. The acetaminophen overlayer dimensions were 25×25 cells and the orientation angle range tested was 180° with a step size of 0.25°.

[2] = Nucleation induction time of AAP from ethanol in the presence of crystalline substrates; type: physicochemical; conditions: AAP Form I from ethanol; for Average induction times, τ: σ = 0.36, 15° C.; for Change in τ compared to bulk nucleation: σ = 0.36
Procedure: 1.5 mL aliquots of the stock solution were then syringe filtered into HPLC vials through a 0.2 μm nylon membrane in order to remove solid impurities. Crystallisations were carried out using a RS10 Clarity Solubility Station with non-intrusive infrared transmission probes and Integrity Client Software. The vials were initially held for 30 mins at 40° C. to ensure complete dissolution of AAP had occurred. After which they were cooled to 15° C. at a rate of 5° C./min and held at this temperature over a 24 hour period whilst the turbidity of the solution was monitored. Over the course of the experiments the stirring speed in each vial was held constant at 700 rpm. For those crystallizations requiring substrate, 3 mg was used. […] For each system studied 50 crystallisations were carried out to ensure a sufficient number of data points were obtained for statistical analysis.
The effectiveness of the five chosen substrates at promoting nucleation of AAP was measured by determining their effect on the nucleation induction time, τ. […] X-ray powder diffraction was used to confirm that it was the nucleation induction time of Form I being measured in all cases with any additional peaks in the diffraction patterns correspond to the substrates.
The percentage of vials crystallized as a function of time were plotted to give cumulative probability distributions of nucleation induction time for each system tested. […] It was assumed that nucleation follows a Poisson distribution (Equation 1). λ is the expected number of occurrences in the interval and k is the exact number of occurrences. If k=0 and […], then the probability of observing no nucleation events within a time, t, is given by equation 2 which is consistent with first order kinetic expressions previously used for studying nucleation events.
Using linear regression, plotting ln(P) against t (FIG. 10), the average induction times and associated errors were calculated (Table 3).

[3] = cited from earlier work; for Stability of the polymorph: ambient conditions / air
[4] = Polymorph obtained on crystallization of 3-ABSA from water with or without AMMP substrate (XRPD)
[5] = 3 mg substrate, 700 rpm, 50 crystallisations, label = substrate

SMILES: Nc1ccc(CC(=O)O)cc1 [4-APAA, 4-aminophenylacetic acid]
- Polymorphic form of AAP crystallized in the presence of substrate [1]: Form II crystallized

SMILES: N[C@@H](Cc1c[nH]cn1)C(=O)O [L-histidine]
- Average induction times, τ [2, 5]: 1910 ± 95 min
- Change in τ compared to bulk nucleation ([2]; label = substrate): no measureable decrease in τ

SMILES: CC(=O)Nc1ccc(O)cc1 [AAP Form II, acetaminophen]
- Time until Form I crystallizes via solvent mediated phase transformation when seeding with Form II ([3]; in solution, seeded with Form II): ≤ 15 min
- Temperature of solid state transformation to Form I ([3]; solid state): Above 60 °C

SMILES: COc1cc(C)nc(N)n1 [AMMP]
- Polymorphic form of 3-ABSA crystallized in the presence of substrate ([4]; aqueous solution saturated at 50° C., cooled to 10° C., 50 mg AMMP seeds, label = substrate): Form I crystallized; also recorded: a mixture of Forms I and II was obtained

SMILES: CC(=O)Nc1ccc(O)cc1 [AAP Form III, acetaminophen]
- Stability of the polymorph [3]: highly unstable in air

SMILES: CC(=O)Nc1ccc(O)cc1 [AAP Form I, acetaminophen, reference compound]
- Stability of the polymorph [3]: thermodynamically stable phase under ambient conditions
- Average induction times, τ ([2]; bulk nucleation, no substrate): 1930 ± 85 min

SMILES: [Cl-].[Na+] [Sodium Chloride, sodium chloride]
- Polymorphic form of AAP crystallized in the presence of substrate [1]: Form I

SMILES: O.OC[C@H]1O[C@@H](O[C@H]2[C@H](O)[C@@H](O)[C@@H](O)O[C@@H]2CO)[C@H](O)[C@@H](O)[C@H]1O [α-LMH, α-lactose monohydrate]
- Average induction times, τ [2, 5]: 410 ± 11 min
- Change in τ compared to bulk nucleation ([2]; label = substrate): largest reduction in τ
- Polymorphic form of AAP crystallized in the presence of substrate [1]: Form I

SMILES: CC(=O)Nc1ccc(O)cc1 [AAP, acetaminophen, reference compound]
- Polymorphic form of AAP crystallized without substrate [1]: only Form I was obtained

SMILES: OC[C@@H](O)[C@@H](O)[C@H](O)[C@H](O)CO [D-mannitol]
- Average induction times, τ [2, 5]: 390 ± 8 min
- Change in τ compared to bulk nucleation ([2]; label = substrate): largest reduction in τ
- Polymorphic form of AAP crystallized in the presence of substrate [1]: Form I

SMILES: Nc1cccc(S(=O)(=O)O)c1 [3-ABSA, 3-aminobenzenesulfonic acid]
- Polymorphic form of 3-ABSA crystallized without substrate ([4]; aqueous solution, no substrate): only Form II was obtained; also recorded: Form II had crystallized

SMILES: Nc1cccc(S(=O)(=O)O)c1 [3-ABSA Form II, 3-aminobenzenesulfonic acid]
- Stability of the polymorph [3]: thermodynamically most stable form under ambient conditions

From patent publication US9822467B2, “Methods and systems relating to the selection of substrates comprising crystalline templates for the controlled crystallization of molecular species” (Massachusetts Institute of Technology, priority 2011, dated 2017)
